“And” between values parts separate entries of the source, which are not always exact repeats. Equal values may be shown once.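 The compound was tested at five concentrations on cells cultured in 96-well plates, with a 48-hour exposure period. GI50 = concentration required for 50% inhibition of growth. TGI denotes the concentration required for complete inhibition of growth.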

Drawing on PubChem BioAssay (NCI), this text covers GI50 and TGI for 8 molecules.

Test systems include HCT-15 colon; ACHN renal; EKVX NSCLC; SK-MEL-5 melanoma; CAKI-1 renal; HS 578T breast; A498 renal; UACC-62 melanoma; PC-3 prostate; NCI-H460 lung.
Experiment in all cases: inhibition of tumour cell growth, NCI panel, 48 h

In the case of `C=CCN(CC=C)C(=O)c1cc(C)nc2c1c(=O)n(-c1ccccc1)c(=O)n2CCCN1CCN(c2ccccc2OC)CC1`, the GI50 in the test on HCT-15 colon, in the test on ACHN renal, in the test with EKVX NSCLC, in the test with SK-MEL-5 melanoma, with CAKI-1 renal and in the test on HS 578T breast was greater than 50 µM in each case. Besides, the GI50 with A498 renal, in the test with UACC-62 melanoma, in the test with PC-3 prostate and in the test on NCI-H460 lung was greater than 50 µM each time. In addition, the TGI in the test on HCT-15 colon, with ACHN renal, with EKVX NSCLC, in the test with SK-MEL-5 melanoma, with CAKI-1 renal and in the test on HS 578T breast was greater than 50 µM throughout. Besides, the TGI in the test on A498 renal, in the test on UACC-62 melanoma, in the test with PC-3 prostate and in the test on NCI-H460 lung was greater than 50 µM in each case.
In the case of `CCOC(=O)/C(=C\c1cccc(C)c1)C(C)=O`, the TGI with HCT-15 colon was 38.9 µM; in the test on ACHN renal it was 66 µM; in the test with EKVX NSCLC, greater than 100 µM; with SK-MEL-5 melanoma, 32 µM; in the test on CAKI-1 renal, 98.8 µM; with HS 578T breast it was 51.3 µM. Moreover, the TGI is 52 µM with A498 renal, 31.7 µM in the test on UACC-62 melanoma, 28.3 µM with PC-3 prostate and 51.6 µM in the test with NCI-H460 lung.
For `CC(C)Cc1ccc(C(C)/C=C2\CCC(CN(C)C)C2=O)cc1` (stereo unspecified), the TGI in the test on HCT-15 colon was found to be 23.1 µM; with ACHN renal it was 38.1 µM; in the test with EKVX NSCLC, 40.2 µM; in the test on SK-MEL-5 melanoma it was 19.4 µM; in the test on CAKI-1 renal, 32.7 µM; with HS 578T breast, 8.45 µM. The TGI is 39.5 µM in the test with A498 renal, 33.8 µM in the test with UACC-62 melanoma, 22.4 µM in the test with PC-3 prostate and 45.8 µM with NCI-H460 lung.
With `CCN(CC)c1ccc2nc3ccc(=[N+](CC)CC)cc-3oc2c1`, the GI50 in the test on HCT-15 colon is 1.49 µM; with ACHN renal, 1.56 µM; with EKVX NSCLC, 0.292 µM; in the test with SK-MEL-5 melanoma, 0.162 µM; with CAKI-1 renal, 2.71 µM; with HS 578T breast, 1.37 µM. In addition, the GI50 was 1.01 µM with A498 renal, 0.756 µM in the test on UACC-62 melanoma, 0.0934 µM in the test with PC-3 prostate and 0.108 µM with NCI-H460 lung. Also, the TGI in the test with HCT-15 colon is greater than 64.8 µM; with ACHN renal, 59.8 µM; in the test with EKVX NSCLC, greater than 40.7 µM; in the test with SK-MEL-5 melanoma, 1.17 µM; in the test on CAKI-1 renal, greater than 31.8 µM; in the test with HS 578T breast it was 5.94 µM. In addition, the TGI in the test with A498 renal is 17.5 µM; in the test on UACC-62 melanoma, 4.33 µM; with PC-3 prostate, greater than 100 µM; in the test with NCI-H460 lung, 8.12 µM.
Consider `CCO/C=C1\SC(=S)N(c2ccc(OCC)cc2)C1=O`, for which the TGI in the test with HCT-15 colon, in the test with ACHN renal, in the test with EKVX NSCLC, with SK-MEL-5 melanoma, with CAKI-1 renal and in the test with HS 578T breast was greater than 100 µM each time. For the same molecule, the TGI with A498 renal, in the test with UACC-62 melanoma, in the test on PC-3 prostate and in the test with NCI-H460 lung was greater than 100 µM each time.
As for `Cc1noc(NC(=O)Nc2ccccc2F)c1C#N`, the TGI is greater than 100 µM in the test on HCT-15 colon; greater than 46.7 µM in the test with ACHN renal; 25.1 µM with EKVX NSCLC; greater than 100 µM in the test on SK-MEL-5 melanoma; greater than 100 µM in the test with CAKI-1 renal; greater than 56.4 µM with HS 578T breast. The TGI is greater than 50.9 µM in the test on A498 renal, greater than 45.4 µM in the test on UACC-62 melanoma, greater than 41.3 µM in the test with PC-3 prostate and greater than 34.2 µM in the test on NCI-H460 lung.
On to `COc1cc2nnc3c4cccnc4[nH]c3c2cc1OC`, for which the GI50 in the test on HCT-15 colon is 2.3 µM and 1.43 µM; in the test with ACHN renal, 0.298 µM and 0.333 µM; in the test with EKVX NSCLC, 3.39 µM and 2.43 µM; in the test with SK-MEL-5 melanoma it was 8.57 µM and 7.33 µM; in the test on CAKI-1 renal it was 1.17 µM and 0.184 µM; with HS 578T breast, 4.21 µM and 3.7 µM. Moreover, the GI50 in the test with A498 renal was 9.26 µM and 2.74 µM; with UACC-62 melanoma it was 2.9 µM and 2.49 µM; in the test with NCI-H460 lung, 2.84 µM and 2.46 µM. Also, the TGI in the test with ACHN renal was 3.54 µM and 1.52 µM; in the test with EKVX NSCLC, 50 µM and 8 µM; in the test on SK-MEL-5 melanoma it was 21.2 µM and 22.2 µM; in the test on HS 578T breast, 50 µM and 82.7 µM; with A498 renal, 26.2 µM and 12.4 µM; in the test with UACC-62 melanoma, 12.5 µM and 9.65 µM. Besides, the TGI with PC-3 prostate was 50 µM and > 100 µM; in the test with NCI-H460 lung it was 12.9 µM and 8.63 µM.
Regarding `O=C(COc1ccc(/C=C2\Oc3ccccc3C2=O)cc1)Nc1nc2ccccc2s1`, the GI50 is 33.8 µM in the test with HCT-15 colon; 28.9 µM with ACHN renal; 26.5 µM in the test on EKVX NSCLC; 29.7 µM with SK-MEL-5 melanoma; 1.79 µM in the test on CAKI-1 renal; 18.1 µM in the test on HS 578T breast. Also, the GI50 was 37.1 µM with A498 renal, 42 µM in the test with UACC-62 melanoma, 2.27 µM in the test on PC-3 prostate and 43.8 µM in the test on NCI-H460 lung. In addition, the TGI was greater than 100 µM in the test with HCT-15 colon; greater than 100 µM in the test with ACHN renal; greater than 100 µM with EKVX NSCLC; greater than 100 µM in the test on SK-MEL-5 melanoma; 96.4 µM with HS 578T breast; 94.5 µM in the test with A498 renal. Besides, the TGI with UACC-62 melanoma was greater than 100 µM; in the test with PC-3 prostate it was greater than 70.6 µM; in the test with NCI-H460 lung, greater than 100 µM.
